Laboratory results from paper PMC9369231, “Bile Acid–Drug Interaction via Organic Anion-Transporting Polypeptide 4C1 Is a Potential Mechanism of Altered Pharmacokinetics of Renally Excreted Drugs” (International Journal of Molecular Sciences, 2022).

How the values were obtained:
Type in all cases: cell-based
[1] = molecular target: T1, OATP4C1 (organic anion-transporting polypeptide 4C1) (Homo sapiens, UniProt Q6ZQN7); test: inhibition of T3 uptake in OATP4C1/MDCKII cells; Ki calculated from IC50 as IC50/([…]+[S]/Km)
T1 construct: gene SLCO4C1; stably expressed in MDCKII cells (G418), butyrate-induced
T1 sequence (Q6ZQN7 1-724): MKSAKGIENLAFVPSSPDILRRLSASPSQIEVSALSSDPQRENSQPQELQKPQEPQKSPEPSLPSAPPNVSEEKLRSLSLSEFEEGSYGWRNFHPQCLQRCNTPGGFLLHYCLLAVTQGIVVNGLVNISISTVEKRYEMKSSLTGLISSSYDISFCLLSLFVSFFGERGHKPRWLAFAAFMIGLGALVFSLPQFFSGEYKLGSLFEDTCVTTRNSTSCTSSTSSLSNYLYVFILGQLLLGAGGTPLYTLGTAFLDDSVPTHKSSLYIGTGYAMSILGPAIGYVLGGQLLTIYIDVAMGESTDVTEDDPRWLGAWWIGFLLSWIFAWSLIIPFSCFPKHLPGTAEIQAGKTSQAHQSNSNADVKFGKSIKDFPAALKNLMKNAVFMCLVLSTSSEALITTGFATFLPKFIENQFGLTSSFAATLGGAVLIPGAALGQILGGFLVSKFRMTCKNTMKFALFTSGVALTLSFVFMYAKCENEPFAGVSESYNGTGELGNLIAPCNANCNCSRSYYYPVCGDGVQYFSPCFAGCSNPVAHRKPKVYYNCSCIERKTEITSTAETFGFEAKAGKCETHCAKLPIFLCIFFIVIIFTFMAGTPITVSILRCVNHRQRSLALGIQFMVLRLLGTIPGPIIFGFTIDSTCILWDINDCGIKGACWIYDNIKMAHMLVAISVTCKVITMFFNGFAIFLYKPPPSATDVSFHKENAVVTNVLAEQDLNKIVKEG

[2] = molecular target: T1, OATP4C1 (organic anion-transporting polypeptide 4C1); test: inhibition of T3 uptake in OATP4C1/MDCKII cells, LC/MS/MS, mock subtracted
Description: inhibition of T3 uptake in OATP4C1/MDCKII cells, LC/MS/MS, mock subtracted on OATP4C1 (organic anion-transporting polypeptide 4C1)

[3] = molecular target: T1, OATP4C1 (organic anion-transporting polypeptide 4C1); test: as above; details: MDCK-II

| Ki [1] [µM] | IC50 [2] [µM] | Compound | inhibition at 50 µM [3] [%] |
| --- | --- | --- | --- |
| 5.23 ± 1.03 | 6.12 ± 1.21 | C[C@H](CCC(=O)O)[C@H]1CC[C@H]2[C@@H]3CC[C@@H]4C[C@H](O)CC[C@]4(C)[C@H]3CC[C@]12C [LCA] | – |
| – | – | C[C@H](CCC(=O)NCCS(=O)(=O)O)[C@H]1CC[C@H]2[C@@H]3CC[C@@H]4C[C@H](OS(=O)(=O)O)CC[C@]4(C)[C@H]3C[C@H](O)[C@]12C [TDCA-3S] | 49.1 |
| 10.5 ± 0.762 | 12.3 ± 0.891 | C[C@H](CCC(=O)NCCS(=O)(=O)O)[C@H]1CC[C@H]2[C@@H]3CC[C@@H]4C[C@H](O)CC[C@]4(C)[C@H]3CC[C@]12C [TLCA] | – |

| Compound | Ki [1] [µM] | IC50 [2] [µM] | inhibition at 50 µM [3] [%] |
| --- | --- | --- | --- |
| C[C@H](CCC(=O)NCC(=O)O)[C@H]1CC[C@H]2[C@@H]3CC[C@@H]4C[C@H](O)CC[C@]4(C)[C@H]3CC[C@]12C [GLCA] | 8.46 ± 0.406 | 9.9 ± 0.475 | – |
